Source: patent publication US9730906B2, “α-derivatives of cis-monounsaturated fatty acids for use as medicines” (UNIVERSITAT DE LES ILLES BALEARS, priority 2008, dated 2017)

Columns and labels:
A549 cells = assay: Growth/viability of A549 lung cancer cells in culture (cell count); type: cell-based, human; set-up: key to Anti-tumour effect: + [inhibition of growth]; ++ [total halt of growth]; +++ [total removal of tumour cells]; conditions: for IC50: concentration that reduces the number of cells to half
How it was run: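 A549 cells were grown in RPMI with 10% serum at 37 °C under 5% CO2 and exposed to fatty-acid derivatives at 0–400 μM, or at 150 μM for 48 h. Cell number was counted by flow cytometry and expressed as percent of untreated control.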

SF767 human tumour cells = assay: Growth of SF767 tumour cells in culture; type: cell-based; set-up: key to Anti-tumour effect: + [inhibition of growth]; ++ [total halt of growth]; +++ [total removal of tumour cells]; key to Mechanism of action: P [anti-proliferative]; D [differentiation]; A [apoptosis]; conditions: for IC50: concentration that reduces the number of cells to half
Description: In a second experimental series, designed to discover whether these molecules are effective in treatment of different types of tumours, the effect of OHOD at various concentrations on human cells of different types of cancer was studied. These experiments were performed as described before, except that the M220 and HT-29 cell lines were cultured in DMEM medium and the MDA-MB-231 line was incubated in Leibowitz L-15 medium supplemented with 15% foetal bovine […]. […] Where the nature of the tumour process requires, application can be topical (use on the skin of active products for the treatment of melanoma and other cutaneous abnormalities of cancerous nature), which can be considered as cosmetic treatments when attempts are made to correct aesthetic defects.

hypertensive rats = assay: Arterial pressure in hypertensive rats after 8-day treatment (Table 5); type: in vivo, rat; conditions: arterial pressure, hypertensive rats, 8-day treatment, 400 mg/kg oral
[1] = Levels of cholesterol, triglycerides and glucose in rats after oral treatment; type: in vivo, rat; conditions: for % control CHO (cholesterol) / % control TG (triglycerides): rats, daily dose of 600 mg/kg oral, untreated controls = 100%
Description: FIG. 13. The four bars, from left to right respectively, show the effect of treatments with vehicle (control, first bar), OHOD at 200 mg/kg (second bar), OHOD at 400 mg/kg (third bar) and OHOD at 600 mg/kg (fourth bar) on the cholesterol levels (group of four bars to the left), triglycerides (group of four bars in the middle) and glucose (group of four bars to the right). The treatments were oral in all cases and were maintained for 30 days. The values indicated are the average obtained in 6 animals per group.
FIG. 14. Effect of treatment with vehicle (control) or with the fatty acids of the invention (600 mg/kg) on the levels of cholesterol, triglycerides and glucose. The values indicated are the average of the values obtained in 6 animals. Each group of three bars represents treatment with a different fatty acid with the left bar corresponding to cholesterol, the middle bar to triglycerides and the right bar to glucose.
Metabolic diseases form a set of pathologies characterised by the accumulation or deficit of certain molecules (cholesterol, triglycerides, glucose, etc.) in the serum or tissues. These changes are the reflection of dysfunctions that are normally associated with errors in the activity of certain enzymes or in the control of these proteins. Among the most important metabolopathies are hypercholesterolemia (elevated levels of cholesterol), hypertriglyceridemia (elevated levels of triglycerides) and diabetes (elevated levels of glucose). These pathologies have high rates of incidence, morbidity and mortality, so that treatment is a first order necessity. […] For these experiments, the dose of fatty acid indicated (0, 200, 400 and 600 mg/kg) was supplied daily via the oral route. At the end of the treatment (30 days), blood was sampled from control and treated animals (n=6) and the levels of cholesterol, triglycerides and glucose were determined using standard colorimetric methods.
In a further experiment, the effect of various molecules at a single dose (600 mg/kg) was investigated. […] In this sense, modification on the α-carbon and the double bond in cis configuration are crucial elements for producing the therapeutic effect indicated above. […] Finally, the effect of α-derivatives of cis-monounsaturated fatty acids on the prevention of obesity was investigated. For this, a model of rat obesity induced by a cafeteria diet, where the hypercaloric food increases the weight of the animals very markedly, was used. There were various experimental groups (see Table 3), each of which consisted of 6 female Wistar Kyoto rats of 250-300 g in weight. All the animals received a standard diet for 2 weeks. In addition, 2 of the groups received an oral preventative pre-treatment of vehicle and the other groups received 300 mg/kg of the fatty acids indicated below. Afterwards, one of the control groups was maintained on a standard diet (lean control) and the other was fed on a cafeteria diet (obese control). The treated animal groups were fed on the cafeteria diet. Preventative pre-treatment was maintained for all the groups. After two weeks on these diets, the lean control group had increased their body weight by an average of 16±16 g, while the obese control group had increased their body weight by an average of 43±17 g (statistically significance difference, p<0.01).

[2] = Body weight of rats on cafeteria diet, no pre-treatment (Table 5); type: in vivo, rat; conditions: cafeteria diet for 2 weeks, 300 mg/kg daily oral, no pre-treatment
Source text: The weight of treated animals was statistically less than the weight of obese control rats and statistically indistinguishable from that of lean control rats.

[3] = OHOD 200, 400, 600 mg/kg oral daily, 30 days, Sprague-Dawley rats, p<0.05

Row | IC50 (A549 cells) [µM] | IC50 (SF767 human tumour cells) [µM] | SMILES | PA (control 214 mmHg) (hypertensive rats) [mmHg] | % control CHO (cholesterol) [1] [% control] | % control TG (triglycerides) [1] [% control] | Body weight (g) (control = 311 g) [2] | Anti-tumour effect (A549 cells; A549, Lung) | Mechanism of action (A549 cells; A549, Lung) | effect on tumour cells at 200 to 400 μM (A549 cells; Doses of 200 to 400 μM, A549) | Anti-tumour effect (SF767 human tumour cells; SF-767, Glioma) | Mechanism of action (SF767 human tumour cells; SF-767, Glioma) | cholesterol levels [1, 3] | glucose levels [1, 3] | triglycerides levels [1, 3]
1 | 61 | 73 | CCCCCCCC/C=C\CCCCCCC(OC)C(=O)O (stereo not drawn) [MOOD, α-Methoxy-cis-Δ9-octadecenoic] | 142 | 65 | 64 | 279 |  |  |  |  |  |  |  | 
2 | 47 | 52 | CCCCCCCC/C=C\CCCCCCC(O)C(=O)[O-].[Na+] (centres unmarked) [Na-OHOD] | 128 | 51 | 32 | 281 |  |  |  |  |  |  |  | 
3 | 62 | 71 | CCCCCCCC/C=C\CCCCCCC(O)C(=O)O (stereo not drawn) [OHOD, α-Hydroxy-cis-Δ9-octadecenoic] | 146 | 55 | 38 | 292 | +++ | P D | total elimination of tumour cells | ++ | D | significant reductions | significant reductions | significant reductions
